Measurements as given in US11311625B2, “Peptide-based multiple-drug delivery vehicle” (priority 2015, dated 2022).
Read-outs that look alike come from different tables or passages of the source. Each block holds one molecule with its values, some of them ahead of it.

Legend:
[1] = system: HCT 116, H1299, TRAMP C2 and HEK cell lines; test: XTT growth inhibition assay, statements over all tested cell lines; assay type: cell-based, human; conditions: for IC50 values: tested cell lines including HEK; for cytotoxicity throughout the study: 1-10 μM, 24 and 72 h
Procedure: (§1) The cytotoxicity of the peptide-drug conjugates was determined by measuring the mitochondrial enzyme activity, using a commercial XTT assay kit. All samples contained DMSO at final concentration <0.05%. Cells were cultured in micro wells at 2-4×10^4 cells/ml and incubated for 24 h or 72 h. After the first incubation period the cultures were washed and then given fresh medium containing different concentrations of the tested substances. At the end of the second incubation, XTT reagent was added and the cells were re-incubated for additional 2-4 h. During that time the absorbencies in the wells were measured with a TECAN Infinite M200 plate reader at both 480 and 680 nm. The difference between these measurements was used for calculating the % Growth Inhibition (GI) in test wells compared to two controls: cells that were exposed to the medium and solvent, and those that were exposed to a solvent-free medium. All the tests were done in quadruplicates. Each experiment was conducted twice.
(§2) In order to compare the cytotoxic effects of the conjugates relative to the free drugs, the in vitro cytotoxic effect of the drug bioconjugates 1a-e was determined on SSTR2 overexpressed HCT 116 human colorectal carcinoma, H1299 human non-small cell lung carcinoma and TRAMP C2 human prostate cancer cell lines. The SSTR2 low-expressed HEK-293 (Human Embryonic Kidney 293) cell line was used as a negative control. The study was elaborated over a concentration range of 1-10 μM.
FIGS. 13A-13D present the results of the XTT growth inhibition assay conducted for conjugates 1a-e. Growth inhibition effect of drug-conjugates versus free drugs was studied on three cell lines with an over-expression of SSTR2 (FIG. 13A. HCT 116; FIG. 13B. H1299; FIG. 13C. TRAMP C2) against the SSTR2 low expression cell line (FIG. 13D) HEK as negative control. All the cell lines were seeded and allowed to adhere in the wells, after which they were treated with the different compounds in increasing concentrations for 24 and 72 hr. After the treatment, growth inhibition was measured using the XTT assay: The culture medium was replaced by a new one, and then the XTT reagent was added. The wells were incubated for 2-4 hrs. after which the optical density (OD) was measured at 480 and 680 nm. Percentage of growth inhibition for each compound was calculated by comparison of the treated culture versus a control culture (free of any compound). The result shown for each concentration point represents the mean±standard error calculated from two different experiments. In each experiment the compounds were tested in quadruplicates.

[2] = Chemo-stability and drug release of conjugates 1a-e in buffers at pH 2, 5 and 7.4 (LC-MS); assay type: physicochemical; conditions: for half-life at 0.4 mg/ml: buffer
Procedure: Incubation procedure: Aqueous stability was determined at pH 2.0 (phosphate buffer), 5.0 (citrate buffer) and 7.4 (PBS buffer). 100 μl of the stock solutions were diluted to 2.5 ml with the desired buffer and then incubated at 37° C. During the incubation period (up to 200 hrs.), aliquots were removed at different time intervals, filtered and analyzed by LC-MS.
Chemo-stability. The chemo-stability tests of the conjugates were performed at three different pH values; a physiological pH of 7.4, the slightly acidic pH 5, mimicking the microenvironment in tumors, and the more acidic pH 2.
FIGS. 11A-11J present the results of the chemo-stability and drug release profiles assays, conducted for conjugates 1a-e at pH 2, 5 and 7.4. Degradation of 1a (FIG. 11A), 1b (FIG. 11C), 1c (FIG. 11E), 1d (FIG. 11G), 1e FIG. 11 (FIG. 11I), and the release of the corresponding drugs: CLB (FIG. 11B), CPT (FIG. 11D), AM (FIG. 11F), ABT-751 (FIG. 11H), and COMB (FIG. 11J). Stock solutions were prepared by dissolving 5 mg of the measured conjugate in 0.5 ml DMSO. 100 μl of the stock solution were diluted to 2.5 ml with the relevant buffer and then incubated at 37° C. Along the incubation period, aliquots were taken at the desired time points and analyzed by LC-MS.

[3] = system: TRAMP C2 prostate cancer cell lines; test: XTT growth inhibition assay, TRAMP C2; assay type: cell-based, human; conditions: compared with corresponding free drugs
Procedure: as §1, with “The difference between these measurements was used for calculating the % Growth Inhibition (GI) in test wells compared to two controls: cells that were exposed to the medium and solvent, and those that were exposed to a solvent-free medium. All the tests were done in quadruplicates. Each experiment was conducted twice.” left out
In order to compare the cytotoxic effects of the conjugates relative to the free drugs, the in vitro cytotoxic effect of the drug bioconjugates 1a-e was determined on SSTR2 overexpressed HCT 116 human colorectal carcinoma, H1299 human non-small cell lung carcinoma and TRAMP C2 human prostate cancer cell lines. […]
(§3) FIGS. 13A-13D present the results of the XTT growth inhibition assay conducted for conjugates 1a-e. […] After the treatment, growth inhibition was measured using the XTT assay: The culture medium was replaced by a new one, and then the XTT reagent was added. The wells were incubated for 2-4 hrs. after which the optical density (OD) was measured at 480 and 680 nm. […]

[4] = Bio-stability and drug release of conjugates 1a-e in murine liver homogenate (LH); assay type: in vitro ADME, mouse
Procedure: (§4) Preparation of liver homogenate: Mice were sacrificed by CO2 inhalation euthanasia. The livers were removed, minced, washed three times in cold PBS buffer and homogenized in Tris-HCl buffer, pH 7.4 (wt/3 vol.) by dozen strokes in a Potter-Elvehjem glass tissue grinder. The tissue homogenate was centrifuged at 4° C., 14000 rpm, 20 min. The supernatant was carefully collected (liver homogenate) and used immediately or else stored in liquid nitrogen.
Incubation procedure: Incubations were conducted in a 37° C. incubator with 2 ml homogenate (equivalent to 6 mg total protein of mouse liver homogenate) per incubation tube. The samples were prepared by adding 50 μl of stock solution to the homogenate (homogenate mixture) at the beginning of the incubation period. Aliquots of the homogenate mixture were removed after 10, 30, 60, 90, 120 and 180 min and then immediately quenched with 2.5 volumes of ethanol. The samples were centrifuged at 14000 rpm for 15 min. Supernatants were collected, filtered and analyzed by LC-MS.
FIGS. 12A-12E present the results of the bio-stability and drug release profiles assays conducted for conjugates 1a-e in LH. […] Stock solutions were prepared by dissolving 5 mg of the measured conjugate in 0.5 ml DMSO. 50 μl of the stock solution were diluted with 2 ml of fresh mouse liver homogenate and then the mixture was incubated at 37° C. Aliquots were collected at 10, 30, 60, 90 and 120 min, mixed with 2.5 volumes of ethanol and centrifuged (14,000 rpm, 15 min). The supernatants were collected, filtered and analyzed by LC-MS

[5] = Chemo-stability and drug release of 9a and CLB in buffers at pH 2, 5 and 7.4 (LC-MS); assay type: physicochemical
Procedure: Stock solutions chemo-stability studies were prepared by dissolving 5 mg of the tested compound in 5000 μl of DMSO.
Incubation procedure: Aqueous stability was determined at pH 2, 5 and 7.4. Aliquots (100 μl) of stock solution were diluted to a total of 2.5 mL with the desired buffer and then incubated at 37° C. During the incubation period (up to 160 h) 250 μL portions were drawn at different time intervals, filtered and analyzed by LC-MS.
Peptidyl delivery systems loaded with anticancer drugs are expected to reach their site of action with minimal degradation. The PDS should be stable enough to be absorbed by cancer cells and only then deliver its toxic cargo. Chemo-stability and bio-stability studies may give us a background check for the endurance of our compact peptidyl DDS under the different conditions it is expected to encounter in a potential animal test. To that end, samples of 9a were incubated at pH 2, mimicking stomach conditions, at pH 5 mimicking the microenvironment in tumors, and at physiological pH 7.4, all at 37° C. Aliquots from the stock solutions were extracted at different time intervals and analyzed by LC-MS following the decrease in concentration of 9a (i.e., chemical degradation) and the formation of the dihydroxy derivative 11. In addition, the direct release of the different drugs was also followed based on the increase in the concentration of CLB, AZA and CAMP over time. In this analysis samples of 9a, 11, CLB, AZA and CAMP were used as references. Overall, the HPLC trace presents a very complex mixture of metabolites which could not be exhaustively characterized. Scheme 9 below presented the molecular structure 11.

[6] = system: H1299 human non-small cell lung carcinoma cells; test: XTT growth inhibition assay, H1299; assay type: cell-based; conditions: 10 μM, incubation of 72 h
Procedure: as §1, §2
as §3, with “nm. Percentage of growth inhibition for each compound was calculated by comparison of the treated culture versus a control culture (free of any compound). The result shown for each concentration point represents the mean±standard error calculated from two different experiments.” for “nm.”

[7] = Bio-stability of 9a in murine liver homogenate (LH); assay type: in vitro ADME, mouse
Procedure: as §4, with “the LH and assay:” for “liver homogenate:”, “Tris-HCl,” for “Tris-HCl buffer,”, “7.4 buffer” for “7.4”, “(LH)” for “(liver homogenate)”, “nitrogen. The concentration of protein was measured using the BCA protein assay with bovine serum albumin as a standard.” for “nitrogen.”
Assay incubation procedure: Incubations were conducted in an incubator oven set at 37° C. Each incubation tube contained 2 mL homogenate samples (equivalent to 6 mg total protein of mouse LH). The samples were prepared by adding 50 μL of stock solution to the LH at the beginning of the incubation period. Aliquots (100 μL) of the LH mixture were removed after 10, 30, 60, 90, 120, and 180 min. immediately quenched with 2.5 volumes of ethanol, and centrifuged at 14000 rpm for 15 min. The supernatants were collected, filtered and analyzed by LC-MS.
In order to get a biologically relevant picture of the release sequence of the different drugs, the bio-stability of 9a in murine liver homogenate (LH) was studied. Examination of the degradation rate of 9a, accompanied by cleavage of free drugs, was carried out following the LC-MS trace at different time intervals using premade authentic samples as reference signals.

[8] = mouse, tissue homogenate, pH 7.4, 37° C., read-out: degradation t1/2 in liver homogenate

Structure (SMILES): COc1ccc(/C=C\c2cc(OC)c(OC)c(OC)c2)cc1O [COMB, combretastatin A4]
IC50 values [1]: low μM range

Structure (SMILES): C[C@@H](O)[C@@H]1NC(=O)[C@H](CCCCN)NC(=O)[C@@H](Cc2c[nH]c3ccccc23)NC(=O)[C@H](Cc2c[nH]c3ccccc23)NC(=O)[C@H](Cc2ccccc2)NC(=O)[C@@H](NC(=O)[C@@H](Cc2ccccc2)NC(=O)CCCNC(=O)CCCC(=O)Nc2cc3c4c(cccc4c2)C(=O)N(CCN(C)C)C3=O)CSSCCN(CC(N)=O)C(=O)[C@H](Cc2ccccc2)NC1=O [conjugate 1c]
half-life at 0.4 mg/ml ([2]; pH 2): 48 h
half-life at 0.4 mg/ml ([2]; pH 5): 28 h
half-life at 0.4 mg/ml ([2]; pH 7.4): 103 h

Structure (SMILES): COc1ccc(/C=C\c2cc(OC)c(OC)c(OC)c2)cc1OC(=O)NCCCC(=O)N[C@H](Cc1ccccc1)C(=O)N[C@H]1CSSCCN(CC(N)=O)C(=O)[C@H](Cc2ccccc2)NC(=O)[C@H]([C@@H](C)O)NC(=O)[C@H](CCCCN)NC(=O)[C@@H](Cc2c[nH]c3ccccc23)NC(=O)[C@H](Cc2c[nH]c3ccccc23)NC(=O)[C@H](Cc2ccccc2)NC1=O [conjugate 1e]
degradation of conjugate in acidic media ([2]; acidic media, especially pH 2): degrades rapidly
half-life at 0.4 mg/ml ([2]; pH 2, 37° C., read-out: degradation t1/2): 0.0667 h
cytotoxic effect on TRAMP C2 [3]: most potent targeted therapeutic effect
half-life at 0.244 mg/ml [4, 8]: 0.433 h
cytotoxicity throughout the study [1]: targeted but cell selective cytotoxicity

Structure (SMILES): CN(C)CCN1C(=O)c2cccc3cc(N)cc(c23)C1=O [amonafide, reference compound]
stability of free drug ([2]; acidic pH 2): relatively low stability
cytotoxicity throughout the study [1]: poorly active

Structure (SMILES): O=C(O)CCCc1ccc(N(CCCl)CCCl)cc1 [CLB, Chlorambucil, reference compound]
degradation of pure CLB ([5]; all tested pH values (2, 5, 7.4), 37° C.): considerable degradation
relative stability of CLB ([5]; pH 5): least stable
cytotoxicity throughout the study [1]: poorly active

Structure (SMILES): CC[C@@]1(OC(=O)NCCCC(=O)N[C@H](Cc2ccccc2)C(=O)N[C@H]2CSSCCN(CC(N)=O)C(=O)[C@H](Cc3ccccc3)NC(=O)[C@H]([C@@H](C)O)NC(=O)[C@H](CCCCN)NC(=O)[C@@H](Cc3c[nH]c4ccccc34)NC(=O)[C@H](Cc3c[nH]c4ccccc34)NC(=O)[C@H](Cc3ccccc3)NC2=O)C(=O)OCc2c1cc1n(c2=O)Cc2cc3ccccc3nc2-1 [conjugate 1b]
half-life [4, 8]: 0.617 h
cytotoxicity throughout the study [1]: targeted but cell selective cytotoxicity
cytotoxic effect on H1299 [6]: most active

degradation of free drug ([2]; buffers, 37° C.): certain degradation behavior
stability of free drug in liver homogenate ([4]; measured time period): rapid degradation
Structure (SMILES): COc1ccc(S(=O)(=O)Nc2cccnc2Nc2ccc(O)cc2)cc1 [ABT-751, reference compound]
IC50 values [1]: low μM range
cytotoxic effect on H1299 [6]: considerable cytotoxic effect

Structure (SMILES): COc1cc([C@@H]2c3[nH]c4ccccc4c3C[C@H]3COC(=O)N32)cc(OC)c1OC(=O)N[C@@H](C)C(=O)O [compound 12]
time the carbamate link remains intact in LH [7]: at least 120 min

Structure (SMILES): C[C@@H](O)[C@@H]1NC(=O)[C@H](CCCCN)NC(=O)[C@@H](Cc2c[nH]c3ccccc23)NC(=O)[C@H](Cc2c[nH]c3ccccc23)NC(=O)[C@H](Cc2ccccc2)NC(=O)[C@@H](NC(=O)[C@@H](Cc2ccccc2)NC(=O)CCCNC(=O)CCCc2ccc(N(CCCl)CCCl)cc2)CSSCCN(CC(N)=O)C(=O)[C@H](Cc2ccccc2)NC1=O [conjugate 1a]
degradation of conjugate ([2]; all tested pH values (pH 2, 5, 7.4), 37° C.): considerable degradation
CLB release from conjugate ([2]; pH 2, 5 and 7.4, 37° C.): observed only at acidic pH 2
half-life ([2]; pH 2, 37° C., read-out: CLB release t1/2 (converted)): 51 h
half-life ([4]; mouse, tissue homogenate, 37° C., read-out: degradation t1/2 in liver homogenate): 0.95 h
cytotoxicity throughout the study [1]: poorly active

Structure (SMILES): CC[C@]1(OC(=O)NCCCC[C@H](NC(=O)CCCc2ccc(N(CCO)CCO)cc2)C(=O)NCCCC[C@H](NC(=O)Oc2c(OC)cc([C@H]3c4[nH]c5ccccc5c4CC4COC(=O)N43)cc2OC)C(=O)O)C(=O)OCc2c1cc1n(c2=O)Cc2cc3ccccc3nc2-1 (some centres unmarked) [compound 11]
time after which no traces of 11 are left ([5]; all three pH cases): 40 h
time at which formation of 11 from 9a reaches its maximum ([5]; all three pH cases): 5 h
